Measured values from patent US6559173B1, “3-(heteroarylamino)methylene-1,3-dihydro-2H-indol-2-ones as kinase inhibitors” (Allergan, Inc., priority 2001, dated 2003).

Assays:
[1] = test system: VEGF induced increases in intracellular calcium levels in HUVEC (human umbilical vein endothelial cells); experiment: VEGF Stimulated Ca++ signal assay (FLIPR); assay type: cell-based; conditions: VEGF 5 ng/mL; for IC50: 0.01 to 10.0 μM
Description: VEGF Stimulated Ca^++ Signal in vitro
Automated FLIPR (Fluorometric Imaging Plate Reader) technology was used to screen for inhibitors of VEGF induced increases in intracellular calcium levels in fluorescent dye loaded endothelial cells. HUVEC (human umbilical vein endothelial cells) (Clonetics) were seeded in 96-well fibronectin coated black-walled plates overnight @ 37° C./5%CO2. Cells were loaded with calcium indicator Fluo-4 for 45 minutes at 37° C. Cells were washed 4 times (Original Cell Wash, Labsystems) to remove extracellular dye. Test compounds were reconstituted in 100% DMSO and added to the cells to give a final DMSO concentration of 0.1%. For screening, cells were pre-incubated with test agents for 30 minutes, at a single concentration (10 μM) or at concentrations ranging from 0.01 to 10.0 μM followed by VEGF stimulation (5 ng/mL). Changes in fluorescence at 516 nm were measured simultaneously in all 96 wells using a cooled CCD camera. Data were generated by determining max-min fluorescence levels for unstimulated, stimulated, and drug treated samples. IC50 values for test compounds were calculated from % inhibition of VEGF stimulated responses in the absence of inhibitor.

[2] = molecular target: T1, cytoplasmic domain of the human VEGF receptor (VEGFR-2) (Homo sapiens, UniProt P35968); experiment: KDR Assay; assay type: biochemical; conditions: His-VEGFR-2, 3.6 μM ATP, poly-Glu-Tyr (4:1)
T1 construct: The cytoplasmic domain of the human VEGF receptor (VEGFR-2) was expressed as a Histidine-tagged fusion protein; His tag (Histidine-tagged fusion); made in house; host or cells: insect cells (engineered baculovirus)
T1 sequence (P35968 786-1356 limits assumed): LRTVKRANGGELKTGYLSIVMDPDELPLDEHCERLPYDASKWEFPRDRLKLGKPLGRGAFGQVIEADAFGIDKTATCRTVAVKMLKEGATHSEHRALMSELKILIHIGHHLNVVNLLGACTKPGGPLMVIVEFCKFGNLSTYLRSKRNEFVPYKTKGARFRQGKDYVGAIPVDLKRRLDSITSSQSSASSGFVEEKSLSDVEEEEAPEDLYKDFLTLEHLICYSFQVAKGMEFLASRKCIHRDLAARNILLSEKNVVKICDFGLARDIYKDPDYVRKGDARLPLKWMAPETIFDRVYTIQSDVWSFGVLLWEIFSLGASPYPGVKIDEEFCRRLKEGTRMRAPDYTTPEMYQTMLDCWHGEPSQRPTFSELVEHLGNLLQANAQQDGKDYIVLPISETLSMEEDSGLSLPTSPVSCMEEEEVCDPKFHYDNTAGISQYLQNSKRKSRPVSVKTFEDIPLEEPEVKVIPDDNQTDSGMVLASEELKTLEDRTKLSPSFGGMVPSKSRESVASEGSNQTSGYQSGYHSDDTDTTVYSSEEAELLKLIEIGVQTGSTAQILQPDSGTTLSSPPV
Description: The cytoplasmic domain of the human VEGF receptor (VEGFR-2) was expressed as a Histidine-tagged fusion protein following infection of insect cells using an engineered baculovirus. His-VEGFR-2 was purified to homogeneity, as determined by SDS-PAGE, using nickel resin chromatography. Kinase assays were performed in 96 well microtiter plates that were coated overnight with 30 μg of poly-Glu-Tyr (4:1) in 10 mM Phosphate Buffered Saline (PBS), pH 7.2-7.4. The plates were incubated with 1% BSA and then washed four times with PBS prior to starting the reaction. Reactions were carried out in 120 μL reaction volumes containing 3.6 μM ATP in kinase buffer (50 mM Hepes buffer pH 7.4, 20 mM MgCl2, 0.1 mM MnCl2 and 0.2 mM Na3VO4). Test compounds were reconstituted in 100% DMSO and added to the reaction to give a final DMSO concentration of 5%. Reactions were initiated by the addition 0.5 ng of purified protein. Following a ten minute incubation at 25° C., the reactions were washed four times with PBS containing 0.05% Tween-20. 100 μl of a monoclonal anti-phosphotyrosine antibody-peroxidase conjugate was diluted 1:10000 in PBS-Tween-20 and added to the wells for 30 minutes. Following four washes with PBS-Tween-20, 100 μl of 0-Phenylenediamine Dihydrochloride in Phosphate-citrate buffer, containing urea hydrogen peroxide, was added to the wells for 7 minutes as a colorimetric substrate for the peroxidase. The reaction was terminated by the addition of 100 μl of 2.5N H2SO4 to each well and read using a microplate ELISA reader set at 492 nm. IC50 values for compound inhibition were calculated directly from graphs of optical density (arbitrary units) versus compound concentration following subtraction of blank values.

[3] = Homo sapiens, 10 μM, 30 min pre-incubation

| IC50 [2] [nM] | Compound | inhibition at 10 µM [1, 3] [%] | IC50 ([1]; Homo sapiens) [nM] | IC50 [1] [nM] | VEGF Stimulated Ca++ signal assay % inhibition @10 μM ([1]; 10 μM, 30 min pre-incubation) [%] |
| --- | --- | --- | --- | --- | --- |
|  | Cc1cc(C)c2c(NC=C3C(=O)Nc4ccccc43)n[nH]c2n1 [Example 25, 3-[(4,6-Dimethyl-1H-pyrazolo[3,4-b]pyridin-3-ylamino)-methylene]-1,3-dihydro-indol-2-one] | 15.1 |  |  |  |
| 11600 | CCn1nccc1NC=C1C(=O)Nc2ccccc21 [Example 46, 3-[(2-Ethyl-2H-pyrazol-3-ylamino)-methylene]-1,3-dihydro-indol-2-one] | 42.4 |  |  |  |
|  | O=C1Nc2ccccc2C1=CNc1cc(-c2cc(OCc3ccccc3)cc(OCc3ccccc3)c2)n[nH]1 [Example 31, 3-{[5-(3,5-Bis-benzyloxy-phenyl)-2H-pyrazol-3-ylamino]-methylene}-1,3-dihydro-indol-2-one] | -12.9 |  |  |  |
| 780 | CC(C)(C)c1cc(NC=C2C(=O)Nc3ccccc32)no1 [Example 41, 3-[(5-tert-Butyl-isoxazol-3-ylamino)-methylene]-1,3-dihydro-indol-2-one] | 96.5 | 10000 |  |  |
| 1210 | O=C1Nc2cc(F)ccc2C1=CNc1cc(-c2ccccc2)[nH]n1 [Example 51, 6-Fluoro-3-[(5-phenyl-1H-pyrazol-3-ylamino)-methylene]-1,3-dihydro-indol-2-one] |  | 2320 |  |  |
| 260 | Cc1oc(C(C)(C)C)cc1-c1cc(NC=C2C(=O)Nc3ccccc32)[nH]n1 [Example 29, 3-{[5-(5-tert-Butyl-2-methyl-furan-3-yl)-2H-pyrazol-3-ylamino]-methylene}-1,3-dihydro-indol-2-one] | 99.1 | ≤ 1000 | 580 |  |
| 570 | Cc1cc(NC=C2C(=O)Nc3cc(F)ccc32)n[nH]1 [Example 49, 6-Fluoro-3-[(5-methyl-1H-pyrazol-3-ylamino)-methylene]-1,3-dihydro-indol-2-one] |  |  |  |  |
| 370 | Cc1cc(NC=C2C(=O)Nc3ccccc32)n[nH]1 [Example 23, 3-[(5-Methyl-1H-pyrazol-3-ylamino)-methylene]-1,3-dihydro-indol-2-one] | 94.7 | ≤ 1000 | 900 |  |
| 970 | Cc1cccc2c1C(=CNc1cc(-c3ccccc3)[nH]n1)C(=O)N2 [Example 8, 4-Methyl-3-[(5-phenyl-1H-pyrazol-3-ylamino)-methylene]-1,3-dihydro-indol-2-one] | 64.5 | 3170 |  |  |
| 1430 | COc1cccc(-c2cc(NC=C3C(=O)Nc4ccccc43)[nH]n2)c1 [Example 33, 3-{[5-(3-Methoxy-phenyl)-2H-pyrazol-3-ylamino]-methylene}-1,3-dihydro-indol-2-one] | 92.9 | 4400 |  |  |
| 82300 | Cc1oc(C(C)(C)C)cc1-c1cc(NC=C2C(=O)Nc3cc(F)ccc32)[nH]n1 [Example 52, 3-{[5-(5-tert-Butyl-2-methyl-furan-3-yl)-2H-pyrazol-3-ylamino]-methylene}-6-fluoro-1,3-dihydro-indol-2-one] |  | 3400 |  |  |
| 530 | O=C1Nc2ccc(F)cc2C1=CNc1cc(-c2ccco2)[nH]n1 [Example 27, 5-Fluoro-3-[(5-furan-2-yl-1H-pyrazol-3-ylamino)-methylene]-1,3-dihydro-indol-2-one] | 98.6 | ≤ 1000 | 1050 |  |
| 850 | O=C1Nc2ccccc2C1=CNc1cc(-c2ccco2)[nH]n1 [Example 4, 3-[(5-Furan-2-yl-1H-pyrazol-3-ylamino)-methylene]-1,3-dihydro-indol-2-one] | 92.6 | ≤ 1000 | 700 |  |
|  | Cc1cccc(Cc2cc(NC=C3C(=O)Nc4ccccc43)[nH]n2)c1 [Example 39, 3-{[5-(3-Methyl-benzyl)-2H-pyrazol-3-ylamino]-methylene}-1,3-dihydro-indol-2-one] | -12.6 |  |  |  |
|  | O=C1Nc2ccccc2C1=CNc1n[nH]c(-c2ccccc2)c1Br [Example 11, 3-[(4-Bromo-5-phenyl-1H-pyrazol-3-ylamino)-methylene]-1,3-dihydro-indol-2-one] | 23.4 |  |  |  |
|  | COc1ccc(-c2cc(NC=C3C(=O)Nc4ccccc43)[nH]n2)cc1 [Example 30, 3-{[5-(4-Methoxy-phenyl)2H-pyrazol-3-ylamino]-methylene}-1,3-dihydro-indol-2-one] | 12.3 |  |  |  |
|  | O=C1Nc2ccc(Cl)cc2C1=CNc1n[nH]c(-c2ccccc2)c1Br [Example 13, 3-[(4-Bromo-5-phenyl-1H-pyrazol-3-ylamino)-methylene]-5chloro-1,3-dihydro-indol-2-one] | -19.1 |  |  |  |
|  | CCOC(=O)c1c[nH]nc1NC=C1C(=O)Nc2ccccc21 [Example 17, 3-[(2-Oxo-1,2-dihydro-indol-3-ylidenemethyl)-amino]-1H-pyrazole-4-carboxylic acid ethyl ester] | 27.2 |  |  |  |
|  | COC(=O)c1ccc(-c2cc(NC=C3C(=O)Nc4ccccc43)n[nH]2)cc1 [Example 24, 4-{5-[(2-Oxo-1,2-dihydro-indol-3-ylidenemethyl)-amino]-2H-pyrazol-3-}-benzoic acid methyl ester] | 56.9 | ≥ 10000 |  |  |
|  | COc1ccc(-c2c(C)n[nH]c2NC=C2C(=O)Nc3ccccc32)cc1OC [Example 16, 3-{[4-(3,4-Dimethoxy-phenyl)-5-methyl-2H-pyrazol-3-ylamino]-methylene}-1,3-dihydro-indol-2-one] | -1.47 |  |  |  |
|  | O=C1Nc2ccccc2C1=CNc1n[nH]c2cccc(F)c12 [Example 15, 3-[(4-Fluoro-1H-indazol-3-ylamino)-methylene]-1,3-dihydro-indol-2-one] | 6.16 |  |  |  |
|  | CSc1[nH]nc(NC=C2C(=O)Nc3ccccc32)c1C#N [Example 18, 5-Methylsulfanyl-3-[(2-oxo-1,2-dihydro-indol-3-ylidenemethyl)-amino]-1H-pyrazole-4-carbonitrile] | 14.1 |  |  |  |
|  | O=C1Nc2ccccc2C1=CNc1n[nH]cc1C(=O)O [Example 19, 3-[(2-Oxo-1,2-dihydro-indol-3-ylidenemethyl)-amino]-1H-pyrazole-4-carboxylic acid] | -0.89 |  |  |  |
|  | O=C1Nc2ccc(Cl)cc2C1=CNc1cc(-c2ccccc2)[nH]n1 [Example 14, 5-Chloro-3-[(5-phenyl-1H-pyrazol-3-ylamino)-methylene]-1,3-dihydro-indol-2-one] | 27.4 |  |  |  |
|  | Cc1ccc(-c2cc(NC=C3C(=O)Nc4ccccc43)[nH]n2)c(C)c1 [Example 34, 3-{[5-(2,4-Dimethyl-phenyl)2H-pyrazol-3-ylamino]-methylene}-1,3-dihydro-indol-2-one] | 58.8 | 7640 |  |  |
|  | O=C1Nc2ccccc2C1=CNc1n[nH]cc1Br [Example 21, 3-[(4-Bromo-1H-pyrazol-3-ylamino)-methylene]-1,3-dihydro-indol-2-one] | 32.1 |  |  |  |
|  | Cc1cccc2c1C(=CNc1n[nH]c(-c3ccccc3)c1Br)C(=O)N2 [Example 12, 3-[(4-Bromo-5-phenyl-1H-pyrazol-3-ylamino)-methylene]-4-methyl-1,3-dihydro-indol-2-one] | -12.9 |  |  |  |
|  | N#Cc1c[nH]nc1NC=C1C(=O)Nc2ccccc21 [Example 20, 3-[(2-Oxo-1,2-dihydro-indol-3-ylidenemethyl)-amino]-1H-pyrazole-4-carbonitrile] | 35.8 |  |  |  |
|  | O=C1Nc2ccccc2C1=CNc1cc(Cc2ccccc2)n[nH]1 [Example 40, 3-[(5-Benzyl-2H-pyrazol-3-ylamino)-methylene]-1,3-dihydro-indol-2-one] | -0.03 |  |  |  |
|  | 3-[(1-H-Pyrazol-3 ylamino)methylene]-1,3-dihydro-indol-2-one [Example 1] |  |  | 3000 | 92.8 |
